Measured values reported in PubChem BioAssay (NCI).
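Test compounds were applied to cells in 96-well plates for 48 hours at 5 doses. TGI denotes the concentration required for complete inhibition of growth.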

How the values were obtained:
Assay in all cases: growth of human tumour cells (NCI), 48 h
UACC-257 melanoma = test system: UACC-257 melanoma
MOLT-4 leukemia = test system: MOLT-4 leukemia
UACC-62 melanoma = test system: UACC-62 melanoma
MCF7 breast = test system: MCF7 breast
DU-145 prostate = test system: DU-145 prostate
SK-MEL-28 melanoma = test system: SK-MEL-28 melanoma
SK-MEL-5 melanoma = test system: SK-MEL-5 melanoma
A498 renal = test system: A498 renal
SF-268 CNS = test system: SF-268 CNS
BT-549 breast = test system: BT-549 breast
T-47D breast = test system: T-47D breast
SW-620 colon = test system: SW-620 colon
MDA-MB-231 breast = test system: MDA-MB-231 breast
OVCAR-5 ovarian = test system: OVCAR-5 ovarian
MDA-MB-435 = test system: MDA-MB-435
HOP-92 NSCLC = test system: HOP-92 NSCLC
HS 578T breast = test system: HS 578T breast
CCRF-CEM leukemia = test system: CCRF-CEM leukemia
SF-539 CNS = test system: SF-539 CNS
SF-295 CNS = test system: SF-295 CNS
NCI-H522 lung = test system: NCI-H522 lung
NCI-H23 lung = test system: NCI-H23 lung
HL-60(TB) leukemia = test system: HL-60(TB) leukemia
HCC-2998 colon = test system: HCC-2998 colon
HOP-62 NSCLC = test system: HOP-62 NSCLC
MALME-3M melanoma = test system: MALME-3M melanoma
TK-10 renal = test system: TK-10 renal
NCI/ADR-RES ovarian = test system: NCI/ADR-RES ovarian
SR leukemia = test system: SR leukemia
HCT-116 colon = test system: HCT-116 colon
786-0 renal = test system: 786-0 renal
NCI-H226 lung = test system: NCI-H226 lung
HCT-15 colon = test system: HCT-15 colon
SN12C renal = test system: SN12C renal
LOX IMVI melanoma = test system: LOX IMVI melanoma
HT29 colon = test system: HT29 colon
KM12 colon = test system: KM12 colon
MDA-N = test system: MDA-N
ACHN renal = test system: ACHN renal
SK-MEL-2 melanoma = test system: SK-MEL-2 melanoma
SNB-75 CNS = test system: SNB-75 CNS
RPMI-8226 leukemia = test system: RPMI-8226 leukemia
M14 melanoma = test system: M14 melanoma
RXF 393 renal = test system: RXF 393 renal
CAKI-1 renal = test system: CAKI-1 renal
A549 NSCLC = test system: A549 NSCLC
SK-OV-3 ovarian = test system: SK-OV-3 ovarian
EKVX NSCLC = test system: EKVX NSCLC
OVCAR-8 ovarian = test system: OVCAR-8 ovarian
PC-3 prostate = test system: PC-3 prostate
UO-31 renal = test system: UO-31 renal
OVCAR-3 ovarian = test system: OVCAR-3 ovarian
OVCAR-4 ovarian = test system: OVCAR-4 ovarian
IGROV1 ovarian = test system: IGROV1 ovarian
K-562 leukemia = test system: K-562 leukemia
COLO 205 colon = test system: COLO 205 colon
NCI-H460 lung = test system: NCI-H460 lung
U251 CNS = test system: U251 CNS
SNB-19 CNS = test system: SNB-19 CNS

C=CCSC1=N/C(=C\c2ccccc2)C(=O)N1CC=C
TGI (UACC-257 melanoma): > 82.5 µM | TGI (MOLT-4 leukemia): 19.1 µM | TGI (UACC-62 melanoma): > 100 µM | TGI (MCF7 breast): > 100 µM | TGI (DU-145 prostate): > 100 µM | TGI (SK-MEL-28 melanoma): > 100 µM | TGI (SK-MEL-5 melanoma): 37.3 µM | TGI (A498 renal): 83.9 µM | TGI (SF-268 CNS): > 57.7 µM | TGI (BT-549 breast): > 100 µM | TGI (T-47D breast): 98.6 µM | TGI (SW-620 colon): > 100 µM | TGI (MDA-MB-231 breast): > 100 µM | TGI (OVCAR-5 ovarian): > 100 µM | TGI (MDA-MB-435): > 100 µM | TGI (HOP-92 NSCLC): > 78.1 µM | TGI (HS 578T breast): > 89.4 µM | TGI (CCRF-CEM leukemia): 49.8 µM | TGI (SF-539 CNS): > 100 µM | TGI (SF-295 CNS): > 100 µM | TGI (NCI-H522 lung): > 100 µM | TGI (NCI-H23 lung): > 100 µM | TGI (HL-60(TB) leukemia): 18.7 µM | TGI (HCC-2998 colon): > 100 µM | TGI (HOP-62 NSCLC): > 100 µM | TGI (MALME-3M melanoma): > 100 µM | TGI (TK-10 renal): > 100 µM | TGI (NCI/ADR-RES ovarian): > 100 µM | TGI (SR leukemia): > 61.6 µM | TGI (HCT-116 colon): > 100 µM | TGI (786-0 renal): > 100 µM | TGI (NCI-H226 lung): > 100 µM | TGI (HCT-15 colon): > 100 µM | TGI (SN12C renal): > 100 µM | TGI (LOX IMVI melanoma): > 81.3 µM | TGI (HT29 colon): > 66.8 µM | TGI (KM12 colon): > 100 µM | TGI (MDA-N): > 100 µM | TGI (ACHN renal): > 100 µM | TGI (SK-MEL-2 melanoma): 97.6 µM | TGI (SNB-75 CNS): 89.2 µM | TGI (RPMI-8226 leukemia): > 62.3 µM | TGI (M14 melanoma): > 100 µM | TGI (RXF 393 renal): 60.6 µM | TGI (CAKI-1 renal): > 100 µM | TGI (A549 NSCLC): > 100 µM | TGI (SK-OV-3 ovarian): > 100 µM | TGI (EKVX NSCLC): 77 µM | TGI (OVCAR-8 ovarian): > 100 µM | TGI (PC-3 prostate): > 75.8 µM | TGI (UO-31 renal): > 100 µM | TGI (OVCAR-3 ovarian): > 93.9 µM | TGI (OVCAR-4 ovarian): > 100 µM | TGI (IGROV1 ovarian): > 100 µM | TGI (K-562 leukemia): > 100 µM | TGI (COLO 205 colon): > 100 µM | TGI (NCI-H460 lung): > 100 µM | TGI (U251 CNS): > 100 µM | TGI (SNB-19 CNS): > 100 µM
